The values below come from patent US8791102B2, “Acetanilide sphingosine-1-phosphate receptor antagonists” (Exelixis, Inc., priority 2008, dated 2014).

A value given as a limit tells only on which side of the number the result lay.

The target in the test is T1, human S1P1 receptors (Homo sapiens, UniProt P21453).
T1 construct: host or cells: HEK293
T1 sequence (P21453 whole entry): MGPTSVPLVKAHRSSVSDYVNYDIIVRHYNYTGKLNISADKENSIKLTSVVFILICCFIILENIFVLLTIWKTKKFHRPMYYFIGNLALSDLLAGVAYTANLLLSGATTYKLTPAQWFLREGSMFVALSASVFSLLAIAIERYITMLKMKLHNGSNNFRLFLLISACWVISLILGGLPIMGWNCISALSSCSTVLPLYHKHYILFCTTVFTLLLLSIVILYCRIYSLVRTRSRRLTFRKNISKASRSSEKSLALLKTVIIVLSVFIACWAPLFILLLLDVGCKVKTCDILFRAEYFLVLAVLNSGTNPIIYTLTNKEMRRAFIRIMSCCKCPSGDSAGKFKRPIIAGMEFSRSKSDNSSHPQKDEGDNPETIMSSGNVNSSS
Put plainly: S1P1R antagonist assay (fluorescent membrane potential dye, cAMP readout). The conditions noted are these: HEK293 cells expressing human S1P1 receptors and CNG channel; 500 nM NECA; S1P1R agonist 10 nM; 90 minutes; read-out: EC50 or IC50 value. It counts as cell-based. The source says: The S1P1R antagonist assay is a fluorescent membrane potential dye measurement assay, indicative of intracellular cAMP changes due to G protein-coupled receptor activation. HEK293 cells engineered to express human S1P1 receptors and a cyclic nucleotide-gated (CNG) channel are obtained from BD Biosciences, 80300-250. The CNG channels are activated by elevated levels of cAMP, resulting in ion flux and cell membrane depolarization. Membrane depolarization is detected with a membrane potential dye. Stimulation of the cells with 5′-(N-ethylcarboxamido)adenosine (NECA), an A2b receptor agonist (Sigma, E2387), elicits an A2bR-dependent increase in cAMP.
Subsequent exposure of the cells to a S1P1R agonist suppresses the NECA induced increase in cAMP through S1P1R-specific signaling by inhibiting adenylyl cyclase and the formation of cAMP from ATP. The degree to which a test compound overcomes the S1P1R agonist suppression of the NECA induced increase in cAMP is a measure of S1P1R antagonist activity. Antagonist activity is quantified as the IC50 (i.e., the concentration needed to elicited one-half of the maximum response of the test compound) and/or as the EC50 (i.e., the concentration needed to elicited one-half of the NECA induced stimulation).
Day 1: Freshly thawed cells were plated into 384-well plates (Corning, 3683) at a density of 14,000 cells/well in 20 μL, complete media and incubated for 16 hours at 37° C., 5% CO2 and 99% relative humidity. Complete media included Dulbecco's modified Eagle's medium (Invitrogen, 11965-092), 10% Fetal bovine serum (Hyclone, SH30071.03), 250 μg/mL geneticin (Invitrogen, 10131-027), and 1 μg/mL Puromycin (Fluka, 82595).
Day 2: Membrane potential dye (20 μL, BD Biosciences, 341833) was added to each well and the plates were incubated for 2.5 hours at ambient temperature. Test compounds (20 μL) were added to the wells at various concentrations (≦10 μM, 1 to 3 dilutions) in a NECA base solution and incubated for 90 minutes in the presence of the S1P1R agonist {4-((4-phenyl-5-trifluoromethyl-2-thienyl)methoxy)benzyl}-3-azetidinecarboxylic acid (10 nM). The NECA-base solution contained Dulbecco's phosphate-buffered saline (Invitrogen, 14190-136), 2.5% DMSO (Fluka, 41648), 25 μM Ro 20-1724 (Sigma, B8279), and 500 nM NECA).
Assay plates were read with a PerkinElmer EnVision reader (Excitation 350 nm, Emission 590 nm) at time T=0 minutes, before compound addition and at time T=90 minutes. The signal was calculated as the ratio T90/T0. Data was analyzed in ActivityBase XE and graphs showing log of compound concentration (X-axis) vs. % activity (Y-axis) were generated for IC50 determinations. Percent activity was calculated with the following formula: (Signal−Agonist Control Signal)/(NECA Control Signal−Agonist Control Signal)×100.
Broadly, the IC50 is the concentration that gives 50% inhibition. Turning to `O=C(NC(COCc1ccccc1)C(=O)Nc1ccc(Oc2ccccc2)cc1)c1ccc(F)cc1C(F)(F)F` (stereo not shown) [Compound 330, 4-fluoro-N-(2-oxo-1-{[(phenylmethyl)oxy]methyl}-2-{[4-(phenyloxy)phenyl]amino}ethyl)-2-(trifluoromethyl)benzamide], the IC50 was greater than 1000 nM. As for `O=C(Nc1ccc(Oc2ccc(F)cc2)cc1)[C@@H]1C[C@@H](Cc2ccc(Cl)s2)CN1C(=O)Cn1cncn1` [Compound 67, (2S,4S)-1-(2-(1H-1,2,4-triazol-1-yl)acetyl)-4-((5-chlorothien-2-yl)methyl)-N-(4-(4-fluorophenoxy)phenyl)pyrrolidine-2-carboxamide], the figure is no more than 300 nM; as for `O=C(Nc1ccc(Oc2ccc(F)cc2)cc1)[C@@H]1C[C@@H](Cc2ccccc2)CN1C(=O)CC(F)(F)F` [Compound 34, (2S,4R)-4-benzyl-N-(4-(4-fluorophenoxy)phenyl)-1-(3,3,3-trifluoropropanoyl)pyrrolidine-2-carboxamide], no more than 300 nM. As for `Cc1ccccc1C[C@@H]1C[C@@H](C(=O)Nc2ccc(Oc3ccc(F)cc3)cc2)N(C(=O)Cn2nccn2)C1` [Compound 48, (2S,4R)-1-(2-(2H-1,2,3-triazol-2-yl)acetyl)-N-(4-(4-fluorophenoxy)phenyl)-4-(2-methylbenzyl)pyrrolidine-2-carboxamide], the figure is no more than 300 nM; as for `CN(CC(=O)N[C@@H](COCc1ccccc1)C(=O)Nc1ccc(Oc2ccccc2)cc1)C(=O)c1ccccc1` [Compound 194, (S)-2-{2-((benzoyl)(methyl)amino)acetamido}-3-benzyloxy-N-(4-phenoxyphenyl)propanamide], 300 to 1000 nM. Turning to `COc1ccc(C2(C(=O)NC(COCc3ccccc3)C(=O)Nc3ccc(Oc4ccccc4)cc3)CC2)cc1` (stereo not shown) [Compound 360, N-(2-oxo-1-{[(phenylmethyl)oxy]methyl}-2-{[4-(phenyloxy)phenyl]amino}ethyl)-1-(4-methoxyphenyl)cyclopropanecarboxamide], the IC50 is greater than 1000 nM. `CC(C)(C(=O)N[C@@H](COCc1ccc(F)cc1)C(=O)Nc1ccc(Oc2ccc(F)cc2)cc1)c1c[nH]cn1` [Compound 161, (S)-2-(2-(1H-imidazol-4-yl)-2-methylpropanamido)-3-(4-fluorobenzyloxy)-N-(4-(4-fluorophenoxy)phenyl)propanamide]: the IC50 is no more than 300 nM. As to `COc1ccc(N2CCN(CC(=O)N[C@@H](COCc3ccccc3)C(=O)Nc3ccc(Oc4ccc(F)cc4)cc3)CC2)cc1` [Compound 224, (S)-3-(benzyloxy)-N-(4-(4-fluorophenoxy)phenyl)-2-(2-(4-(4-methoxyphenyl)piperazin-1-yl)acetamido)propanamide], the IC50 lay in the range of 300 to 1000 nM. For `O=C(Cc1cnc[nH]1)N[C@@H](COCc1ccccc1)C(=O)Nc1ccc(Oc2cccc(Cl)c2)cc1` [Compound 148, (S)-2-(2-(1H-imidazol-4-yl)acetamido)-3-(benzyloxy)-N-(4-(3-chlorophenoxy)phenyl)propanamide], the IC50 is no more than 300 nM. For `COCC(=O)N1C[C@H](Cc2ccccc2)C[C@H]1C(=O)Nc1ccc(Oc2ccc(F)cc2)cc1` [Compound 122, (2S,4R)-4-benzyl-N-(4-(4-fluorophenoxy)phenyl)-1-(2-methoxyacetyl)pyrrolidine-2-carboxamide] the value was no more than 300 nM; for `O=C(Nc1ccc(Oc2ccc(F)cc2)cc1)[C@@H]1C[C@@H](Cc2ccc(F)cc2Cl)CN1C(=O)Cn1cncn1` [Compound 9, (2S,4R)-1-(2-(1H-1,2,4-triazol-1-yl)acetyl)-4-(2-chloro-4-fluorobenzyl)-N-(4-(4-fluorophenoxy)phenyl)pyrrolidine-2-carboxamide], no more than 300 nM; for `O=C(Nc1ccc(Oc2ccc(F)cc2)cc1)[C@@H]1C[C@@H](Cc2ccccc2)CN1C(=O)Cn1cncn1` [Compound 140, (2S,4R)-1-(2-(1H-1,2,4-triazol-1-yl)acetyl)-4-benzyl-N-(4-(4-fluorophenoxy)phenyl)pyrrolidine-2-carboxamide], no more than 300 nM.

For `O=C(Cc1cnc[nH]1)NC(COCc1ccccc1)C(=O)Nc1ccc(Oc2ccccc2)cc1` (stereo not shown) [Compound 142, 2-(2-(1H-imidazol-5-yl)acetamido)-3-benzyloxy-N-(4-phenoxyphenyl)propanamide], the IC50 was no more than 300 nM.

For the molecule `O=C(CN1CCN(c2ccc(F)cc2)CC1)N[C@@H](COCc1ccccc1)C(=O)Nc1ccc(Oc2ccc(F)cc2)cc1` [Compound 218, (S)-3-(benzyloxy)-N-(4-(4-fluorophenoxy)phenyl)-2-(2-(4-(4-fluorophenyl)piperazin-1-yl)acetamido)propanamide], the IC50 lay within 300 to 1000 nM. As for `COc1ccc(CCCC(=O)NC(COCc2ccccc2)C(=O)Nc2ccc(Oc3ccccc3)cc2)cc1OC` (stereo not shown) [Compound 320, 4-[3,4-bis(methyloxy)phenyl]-N-(2-oxo-1-{[(phenylmethyl)oxy]methyl}-2-{[4-(phenyloxy)phenyl]amino}ethyl)butanamide], the IC50 was greater than 1000 nM. With `O=C(CN1CCOCC1)N[C@@H](COCc1ccccc1)C(=O)Nc1ccc(Oc2ccc(F)cc2)cc1` [Compound 155, (S)-3-(benzyloxy)-N-(4-(4-fluorophenoxy)phenyl)-2-(2-morpholinoacetamido)propanamide], the IC50 was no more than 300 nM. As for `COc1cccc(C[C@@H]2C[C@@H](C(=O)Nc3ccc(Oc4ccc(F)cc4)cc3)N(C(=O)Cn3nccn3)C2)c1` [Compound 69, (2S,4R)-1-(2-(2H-1,2,3-triazol-2-yl)acetyl)-N-(4-(4-fluorophenoxy)phenyl)-4-(3-methoxybenzyl)pyrrolidine-2-carboxamide], the IC50 was no more than 300 nM.

On to `O=C(Nc1ccc(Oc2ccc(F)cc2)cc1)[C@@H]1CN(C(=O)OCc2ccccc2)CCN1C(=O)Cc1c[nH]cn1` [Compound 257, (S)-benzyl 4-(2-(1H-imidazol-4-yl)acetyl)-3-(4-(4-fluorophenoxy)phenylcarbamoyl)piperazine-1-carboxylate], for which the IC50 lay in the range of 300 to 1000 nM.

For `Cc1noc(C)c1CC(=O)N[C@@H](COCc1ccccc1)C(=O)Nc1ccc(Oc2ccc(F)cc2)cc1` [Compound 150, (S)-3-(benzyloxy)-2-(2-(3,5-dimethylisoxazol-4-yl)acetamido)-N-(4-(4-fluorophenoxy)phenyl)propanamide], the IC50 was no more than 300 nM. For `COc1cccc(C[C@@H]2C[C@@H](C(=O)Nc3ccc(Oc4ccc(F)cc4)cc3)N(C(=O)Cn3ccnn3)C2)c1` [Compound 68, (2S,4R)-1-(2-(1H-1,2,3-triazol-1-yl)acetyl)-N-(4-(4-fluorophenoxy)phenyl)-4-(3-methoxybenzyl)pyrrolidine-2-carboxamide], the IC50 was no more than 300 nM. As for `CCOCC(=O)NC(COCc1ccccc1)C(=O)Nc1ccc(Oc2ccccc2)cc1` (stereo not shown) [Compound 338, N-(2-oxo-1-{[(phenylmethyl)oxy]methyl}-2-{[4-(phenyloxy)phenyl]amino}ethyl)-2-ethoxyacetamide], the IC50 was greater than 1000 nM.

With `Cc1n[nH]c(C)c1CC(=O)N[C@@H](COCc1ccccc1)C(=O)Nc1ccc(Oc2ccc(F)cc2)cc1` [Compound 152, (S)-3-(benzyloxy)-2-(2-(3,5-dimethyl-1H-pyrazol-4-yl)acetamido)-N-(4-(4-fluorophenoxy)phenyl)propanamide], the IC50 was no more than 300 nM.
